In the NIST ThermoML archive (doi:10.1016/j.fluid.2010.08.027):
± gives the expanded uncertainty stated by the source.

Details: 101.33 kPa, Liquid, Vibrating tube method

| Compound | mass density (303.15 K) | mass density (313.15 K) | mass density (323.15 K) | mass density (333.15 K) | mass density (343.15 K) | mass density (353.15 K) | mass density (308.15 K) | mass density (318.15 K) | mass density (328.15 K) | mass density (338.15 K) | mass density (348.15 K) |
| --- | --- | --- | --- | --- | --- | --- | --- | --- | --- | --- | --- |
| Cn1cc[n+](CCO)c1.O=S(=O)([O-])C(F)(F)F | 1444 ± 2 kg/m3 | 1436.1 ± 2 kg/m3 | 1428 ± 2 kg/m3 | 1420.5 ± 1.9 kg/m3 | 1410.8 ± 1.9 kg/m3 | 1400.5 ± 1.9 kg/m3 | – | – | – | – | – |
| Cn1cc[n+](CCO)c1.O=S(=O)([N-]S(=O)(=O)C(F)(F)F)C(F)(F)F | 1589.4 ± 2.3 kg/m3 | 1578.9 ± 2.3 kg/m3 | 1568.7 ± 2.3 kg/m3 | 1558.7 ± 2.3 kg/m3 | 1548.8 ± 2.2 kg/m3 | 1538.6 ± 2.2 kg/m3 | 1584.2 ± 2.3 kg/m3 | 1574.2 ± 2.3 kg/m3 | 1563.7 ± 2.3 kg/m3 | 1553.7 ± 2.2 kg/m3 | 1544 ± 2.2 kg/m3 |
| Cn1cc[n+](CCO)c1.F[P-](F)(F)(F)(F)F [3-(2-hydroxyethyl)-1-methylimidazolium hexafluorophosphate] | 1555.6 ± 2.2 kg/m3 | 1546 ± 2.2 kg/m3 | 1536.4 ± 2.2 kg/m3 | 1527.2 ± 2.2 kg/m3 | 1518.2 ± 2.2 kg/m3 | 1508.7 ± 2.1 kg/m3 | 1550.8 ± 2.2 kg/m3 | 1541.1 ± 2.2 kg/m3 | 1531.8 ± 2.2 kg/m3 | 1522.6 ± 2.2 kg/m3 | 1513.6 ± 2.2 kg/m3 |
